Non-standard residues stand in square brackets, D forms with d. Residues, ends and D or L forms follow the SMILES beside them. No end group written: not given here.
Columns and labels:
wax moth larvae = experiment: Toxicity in wax moth larvae (uninfected); format: in vivo, Galleria mellonella; conditions: n = 9 in each group
Procedure: The antimicrobial activities of temporin-PKE and temporin-PKE-3K, in vivo, were studied in the wax moth larvae model. Wax moth larvae (Livefood UK Ltd., Rooks Bridge, UK), weighing 250 ± 25 mg, were divided into different groups (n = 9 in each group). […] After 2 h of exposure, 10 µL of peptide solution, with concentrations of 4, 8, and 16 mg/kg, was injected into the larvae in each group. PBS was utilised as the negative control, and 50 mg/kg vancomycin was selected as the positive control for MRSA. The survival rates of the larvae were recorded every 12 h for 120 h.

HaCaT cells = format: cell-based, human; conditions: 24 h
Procedure: The cytotoxicity of the peptides against the human epidermal keratinocyte line, HaCaT, was tested using the MTT cell viability assay as described in a previous study. The 100 µL of the cell suspension in a complete DMEM medium with a density of 10,000 cells/mL was seeded in a 96-well plate and incubated overnight at 37 °C in a humidified 5% CO2 atmosphere. After 4 h of starvation in a serum-free medium, 100 μL of serial dilutions (from 10^−9 M to 10^−4 M) of temporin-PKE and its analogues was added to each well, and the plate was incubated for 24 h. The serum-free medium and 0.1% Triton X-100 were used as the negative and positive control, respectively. Then, MTT solution, at a volume of 10 μL, was added to each well, and the plate was incubated for 2 h. After this, the medium was replaced by 100 μL of DMSO, and plates were put in the shaking incubator for 15 min. The absorbance of each well was measured using a microplate reader (EL808, Biolise BioTek, Winooski, VT, USA) set to a wavelength of 570 nm. The equation used to calculate the viability of the cells is shown below: Cell viability (%)=A−Ab/An−Ab×100% where A represents the absorbance of each treatment group, Ab represents the average absorbance of the wells in the blank control group (cells not exposed to the test peptide and MTT), and An represents the average absorbance of the wells in the negative control group (cells not exposed to the test peptide).

| Molecule | mortality of larvae treated with peptide (wax moth larvae; highest test concentration, late stage) [%] | IC50 (HaCaT cells) [µM] | survival of larvae injected with peptide (wax moth larvae; doses of 16 mg/kg) |
| --- | --- | --- | --- |
| FLPLIIGALSSLLPKIF-NH2 [Temporin-PKE] | 50 | 5.04 | – |
| CC[C@@H](C)[C@@H](NC(=O)[C@H](CCCCN)NC(=O)[C@@H]1CCCN1C(=O)[C@H](CC(C)C)NC(=O)[C@H](CC(C)C)NC(=O)[C@H](CO)NC(=O)[C@H](CO)NC(=O)[C@H](CC(C)C)NC(=O)[C@H](C)NC(=O)CNC(=O)[C@H](NC(=O)[C@H](NC(=O)[C@H](CC(C)C)NC(=O)[C@@H]1CCCN1C(=O)[C@H](CC(C)C)NC(=O)[C@@H](N)Cc1ccccc1)[C@H](C)CC)[C@H](C)CC)C(=O)N[C@@H](Cc1ccccc1)C(N)=O [Temporin-PKE-3i] (H-FLPL[dI][dI]GALSSLLPK[dI]F-NH2) | – | 497 | – |
| FLPKIIGKLSSKLPKIF-NH2 [Temporin-PKE-4K] | – | 251 | – |
| FLPLIIGKLSSLLPKIF-NH2 [Temporin-PKE-2K] | – | 9.04 | – |
| FLPLIIGALSSKLPKIF-NH2 [Temporin-PKE-K12] | – | 19 | – |
| FLPKIIGKLSSLLPKIF-NH2 [Temporin-PKE-3K] | – | 29.6 | totally survived |
| CC[C@@H](C)[C@@H](NC(=O)[C@H](CCCCN)NC(=O)[C@@H]1CCCN1C(=O)[C@H](CC(C)C)NC(=O)[C@H](CC(C)C)NC(=O)[C@H](CO)NC(=O)[C@H](CO)NC(=O)[C@H](CC(C)C)NC(=O)[C@H](C)NC(=O)CNC(=O)[C@@H](NC(=O)[C@@H](NC(=O)[C@H](CC(C)C)NC(=O)[C@@H]1CCCN1C(=O)[C@H](CC(C)C)NC(=O)[C@@H](N)Cc1ccccc1)[C@@H](C)CC)[C@@H](C)CC)C(=O)N[C@@H](Cc1ccccc1)C(N)=O [Temporin-PKE-i] (H-FLPLIIGALSSLLPK[dI]F-NH2) | – | 11.9 | – |

Reference: paper PMC9221509, “Discovery of a Novel Antimicrobial Peptide, Temporin-PKE, from the Skin Secretion of Pelophylax kl. esculentus, and Evaluation of Its Structure-Activity Relationships” (Biomolecules, 2022)
